Laboratory results as given in PMC10408569, “Recruitment of hexahydroquinoline as anticancer scaffold targeting inhibition of wild and mutants EGFR (EGFR^WT, EGFR^T790M, and EGFR^L858R)” (Journal of Enzyme Inhibition and Medicinal Chemistry, 2023).

What was measured:
[1] = test system: DU-145; assay: NCI-60 anticancer screening (SRB); assay type: cell-based; conditions: Homo sapiens; DU-145, prostate cancer; one dose 10 μM; read-out: Growth Inhibition Percentage (GI %)
[2] = test system: MDA-MB-468; assay: NCI-60 anticancer screening (SRB); assay type: cell-based; conditions: Homo sapiens; MDA-MB-468, breast cancer; one dose 10 μM; read-out: Growth Inhibition Percentage (GI %)
[3] = test system: UO-31; assay: NCI-60 anticancer screening (SRB); assay type: cell-based; conditions: Homo sapiens; UO-31, renal cancer; one dose 10 μM; read-out: Growth Inhibition Percentage (GI %)
[4] = test system: SF-295; assay: NCI-60 anticancer screening (SRB); assay type: cell-based; conditions: Homo sapiens; SF-295, CNS cancer; one dose 10 μM; read-out: Growth Inhibition Percentage (GI %)
[5] = test system: EKVX; assay: NCI-60 anticancer screening (SRB); assay type: cell-based; conditions: Homo sapiens, NSC lung cancer, one dose 10 μM, read-out: Growth Inhibition Percentage (GI %)
[6] = test system: K-562; assay: NCI-60 anticancer screening (SRB); assay type: cell-based; conditions: Homo sapiens, K562; K-562, leukemia; one dose 10 μM; read-out: Growth Inhibition Percentage (GI %)
[7] = test system: OVCAR-4; assay: NCI-60 anticancer screening (SRB); assay type: cell-based; conditions: Homo sapiens; OVCAR-4, ovarian cancer; one dose 10 μM; read-out: Growth Inhibition Percentage (GI %)
[8] = test system: OVCAR-3; assay: NCI-60 anticancer screening (SRB); assay type: cell-based; conditions: Homo sapiens; OVCAR-3, ovarian cancer; one dose 10 μM; read-out: Growth Inhibition Percentage (GI %)
[9] = test system: MALME-3M; assay: NCI-60 anticancer screening (SRB); assay type: cell-based; conditions: Homo sapiens, melanoma, one dose 10 μM, read-out: Growth Inhibition Percentage (GI %)
[10] = test system: HS 578T; assay: NCI-60 anticancer screening (SRB); assay type: cell-based; conditions: Homo sapiens; HS 578T, breast cancer; one dose 10 μM; read-out: Growth Inhibition Percentage (GI %)
[11] = test system: 786-0; assay: NCI-60 anticancer screening (SRB); assay type: cell-based; conditions: Homo sapiens; 786-0, renal cancer; one dose 10 μM; read-out: Growth Inhibition Percentage (GI %)
[12] = test system: BT-549; assay: NCI-60 anticancer screening (SRB); assay type: cell-based; conditions: Homo sapiens; BT-549, breast cancer; one dose 10 μM; read-out: Growth Inhibition Percentage (GI %)
[13] = test system: SNB-75; assay: NCI-60 anticancer screening (SRB); assay type: cell-based; conditions: Homo sapiens; SNB-75, CNS cancer; one dose 10 μM; read-out: Growth Inhibition Percentage (GI %)
[14] = test system: SK-MEL-28; assay: NCI-60 anticancer screening (SRB); assay type: cell-based; conditions: Homo sapiens; SK-MEL-28, melanoma; one dose 10 μM; read-out: Growth Inhibition Percentage (GI %)
[15] = test system: COLO 205; assay: NCI-60 anticancer screening (SRB); assay type: cell-based; conditions: Homo sapiens; COLO 205, colon cancer; one dose 10 μM; read-out: Growth Inhibition Percentage (GI %)
[16] = test system: UACC-62; assay: NCI-60 anticancer screening (SRB); assay type: cell-based; conditions: Homo sapiens; UACC-62, melanoma; one dose 10 μM; read-out: Growth Inhibition Percentage (GI %)
[17] = test system: CCRF-CEM; assay: NCI-60 anticancer screening (SRB); assay type: cell-based; conditions: Homo sapiens, leukemia, one dose 10 μM, read-out: Growth Inhibition Percentage (GI %)
[18] = test system: TK-10; assay: NCI-60 anticancer screening (SRB); assay type: cell-based; conditions: Homo sapiens; TK-10, renal cancer; one dose 10 μM; read-out: Growth Inhibition Percentage (GI %)
[19] = test system: NCI-H226; assay: NCI-60 anticancer screening (SRB); assay type: cell-based; conditions: Homo sapiens; NCI-H226, NSC lung cancer; one dose 10 μM; read-out: Growth Inhibition Percentage (GI %)
[20] = test system: U251; assay: NCI-60 anticancer screening (SRB); assay type: cell-based; conditions: Homo sapiens, U-251; U251, CNS cancer; one dose 10 μM; read-out: Growth Inhibition Percentage (GI %)
[21] = test system: MOLT-4; assay: NCI-60 anticancer screening (SRB); assay type: cell-based; conditions: Homo sapiens; MOLT-4, leukemia; one dose 10 μM; read-out: Growth Inhibition Percentage (GI %)
[22] = test system: OVCAR-8; assay: NCI-60 anticancer screening (SRB); assay type: cell-based; conditions: Homo sapiens; OVCAR-8, ovarian cancer; one dose 10 μM; read-out: Growth Inhibition Percentage (GI %)
[23] = test system: LOX IMVI; assay: NCI-60 anticancer screening (SRB); assay type: cell-based; conditions: Homo sapiens, melanoma, one dose 10 μM, read-out: Growth Inhibition Percentage (GI %)
[24] = test system: M14; assay: NCI-60 anticancer screening (SRB); assay type: cell-based; conditions: Homo sapiens; M14, melanoma; one dose 10 μM; read-out: Growth Inhibition Percentage (GI %)
[25] = test system: HL-60(TB); assay: NCI-60 anticancer screening (SRB); assay type: cell-based; conditions: Homo sapiens, leukemia, one dose 10 μM, read-out: Growth Inhibition Percentage (GI %)
[26] = test system: HOP-92; assay: NCI-60 anticancer screening (SRB); assay type: cell-based; conditions: Homo sapiens; HOP-92, NSC lung cancer; one dose 10 μM; read-out: Growth Inhibition Percentage (GI %)
[27] = test system: NCI-H522; assay: NCI-60 anticancer screening (SRB); assay type: cell-based; conditions: Homo sapiens; NCI-H522, NSC lung cancer; one dose 10 μM; read-out: Growth Inhibition Percentage (GI %)
[28] = test system: MCF7; assay: NCI-60 anticancer screening (SRB); assay type: cell-based; conditions: Homo sapiens; MCF7, breast cancer; one dose 10 μM; read-out: Growth Inhibition Percentage (GI %)
[29] = test system: SK-MEL-2; assay: NCI-60 anticancer screening (SRB); assay type: cell-based; conditions: Homo sapiens; SK-MEL-2, melanoma; one dose 10 μM; read-out: Growth Inhibition Percentage (GI %)
[30] = test system: NCI/ADR-RES; assay: NCI-60 anticancer screening (SRB); assay type: cell-based; conditions: Homo sapiens, ovarian cancer, one dose 10 μM, read-out: Growth Inhibition Percentage (GI %)
[31] = test system: CAKI-1; assay: NCI-60 anticancer screening (SRB); assay type: cell-based; conditions: Homo sapiens; CAKI-1, renal cancer; one dose 10 μM; read-out: Growth Inhibition Percentage (GI %)
[32] = test system: SF-268; assay: NCI-60 anticancer screening (SRB); assay type: cell-based; conditions: Homo sapiens; SF-268, CNS cancer; one dose 10 μM; read-out: Growth Inhibition Percentage (GI %)
[33] = test system: A498; assay: NCI-60 anticancer screening (SRB); assay type: cell-based; conditions: Homo sapiens; A498, renal cancer; one dose 10 μM; read-out: Growth Inhibition Percentage (GI %)

Row | Compound | inhibition at 10 µM [1] | inhibition at 10 µM [2] | inhibition at 10 µM [3] | inhibition at 10 µM [4] | inhibition at 10 µM [5] | inhibition at 10 µM [6] | inhibition at 10 µM [7] | inhibition at 10 µM [8] | inhibition at 10 µM [9] | inhibition at 10 µM [10] | inhibition at 10 µM [11] | inhibition at 10 µM [12] | inhibition at 10 µM [13] | inhibition at 10 µM [14] | inhibition at 10 µM [15] | inhibition at 10 µM [16] | inhibition at 10 µM [17] | inhibition at 10 µM [18] | inhibition at 10 µM [19] | inhibition at 10 µM [20] | also measured
1 | CCOC(=O)C1=C(N)N(c2ccc(C)cc2)C2=C(C(=O)CC(C)(C)C2)C1c1ccc(OC)cc1 (racemic) [8g, (±)-Ethyl 2-amino-4–(4-methoxyphenyl)-7,7-dimethyl-1–(4-methylphenyl)-5-oxo-1,4,5,6,7,8-hexahydroquinoline-3-carboxylate] | < 10% | < 10% | < 10% | < 10% | < 10% | < 10% | < 10% | < 10% | < 10% | < 10% | < 10% | < 10% | 13% | < 10% | < 10% | < 10% | < 10% | < 10% | < 10% | < 10% | inhibition at 10 µM [21]: < 10%; inhibition at 10 µM [22]: < 10%; inhibition at 10 µM [23]: < 10%; inhibition at 10 µM [24]: < 10%; inhibition at 10 µM [25]: < 10%; inhibition at 10 µM [26]: < 10%; inhibition at 10 µM [27]: < 10%; inhibition at 10 µM [28]: < 10%; melting point: 181 to 183 °C; inhibition at 10 µM [29]: < 10%; inhibition at 10 µM [30]: < 10%; inhibition at 10 µM [31]: < 10%; inhibition at 10 µM [32]: < 10%; inhibition at 10 µM [33]: < 10%
2 | CCOC(=O)C1=C(N)N(c2ccc(Cl)cc2)C2=C(C(=O)CC(C)(C)C2)C1c1ccc(OC)cc1 (racemic) [8h, (±)-Ethyl 2-amino-1–(4-chlorophenyl)-4–(4-methoxyphenyl)-7,7-dimethyl-5-oxo-1,4,5,6,7,8-hexahydroquinoline-3-carboxylate] | < 10% | < 10% | < 10% | < 10% | < 10% | < 10% | < 10% | < 10% | < 10% | < 10% | < 10% | 25% | < 10% | < 10% | < 10% | < 10% | < 10% | < 10% | < 10% | < 10% | inhibition at 10 µM [21]: < 10%; inhibition at 10 µM [22]: < 10%; inhibition at 10 µM [23]: < 10%; inhibition at 10 µM [24]: < 10%; inhibition at 10 µM [25]: < 10%; inhibition at 10 µM [26]: < 10%; inhibition at 10 µM [27]: < 10%; inhibition at 10 µM [28]: < 10%; melting point: 255 to 257 °C; inhibition at 10 µM [29]: < 10%; inhibition at 10 µM [30]: < 10%; inhibition at 10 µM [31]: < 10%; inhibition at 10 µM [32]: < 10%; inhibition at 10 µM [33]: < 10%
3 | CCOC(=O)C1=C(N)N(c2ccccc2)C2=C(C(=O)CC(C)(C)C2)C1c1ccc([N+](=O)[O-])cc1 (racemic) [8i, (±)-Ethyl 2-amino-4–(4-nitrophenyl)-7,7-dimethyl-5-oxo-1-phenyl-1,4,5,6,7,8-hexahydroquinoline-3-carboxylate] | < 10% | < 10% | < 10% | < 10% | 14% | 16% | < 10% | < 10% | < 10% | < 10% | < 10% | < 10% | < 10% | < 10% | < 10% | 33% | 11% | < 10% | 12% | < 10% | inhibition at 10 µM [21]: 22%; inhibition at 10 µM [22]: < 10%; inhibition at 10 µM [23]: 11%; inhibition at 10 µM [24]: < 10%; inhibition at 10 µM [25]: < 10%; inhibition at 10 µM [26]: < 10%; inhibition at 10 µM [27]: 21%; inhibition at 10 µM [28]: 16%; melting point: 164 to 166 °C; inhibition at 10 µM [29]: < 10%; inhibition at 10 µM [30]: < 10%; inhibition at 10 µM [31]: 32%; inhibition at 10 µM [32]: < 10%; inhibition at 10 µM [33]: < 10%
